Assay results from patent publication EP4772500A1, “NOVEL ISOXAZOLE COMPOUND AS TM4SF5-SPECIFIC INHIBITOR AND USE THEREOF” (Seoul National University R&DB Foundation, priority 2023, dated 2025).

System: SNU761-TM4SF5
Assay: Western blotting of SLAMF7 expression, TM4SF5-expressing SNU761 cells
Format: cell-based, human
Conditions: for expression level of SLAMF7 (WCL): whole-cell lysates, 24 hours (FIG. 15e-f)
Procedure: Cell extracts were obtained from cells grown to a density of 70-80% without any treatment, or from cells treated with vehicle DMSO or drugs at the given concentrations for 24 hours. For the extract of hepatocytes or liver cancer cells, a lysis buffer (150 mM NaCl, 1% NP-40, 50 mM Tris-HCl, 0.25% sodium deoxycholate, pH 7.4) including a protease inhibitor cocktail (GenDEPOT) was used. In addition, after washing animal liver tissue twice with PBS, SDS, Na3VO4, and protease inhibitor cocktails (GenDEPOT) were added to a lysis buffer [50 mM Tris-HCl, pH 7.4, 1% NP40, 0.25% sodium deoxycholate, 150 mM NaCl, 1 mM EDTA (based on 500 ml)], followed by treatment at 4°C for 15 minutes. After centrifugation at 13,000 rpm at 4°C for 30 minutes, only the supernatant was transferred to a new microcentrifuge tube. After quantification using BCA reagent (Thermo Scientific), a 4 × sample buffer [100% glycerol 4 ml, Tris-HCl, pH 6.8, 2.4 ml, SDS 0.8 g, Bromophenol blue 4 mg, betamercaptoethanol 0.4 ml, H2O 3.1 ml (based on 10 ml)] was added, followed by boiling at 100°C for 5 minutes. After performing SDS-PAGE electrophoresis with the above samples and transferring them to Nitrocellulose Membranes Protran™ nitrocellulose membranes (Whatman), pre-treatment was performed with 5% skim milk for 1 hour. After pre-treatment, primary antibodies of p-FAK(Y861) (SC-16663), p-FAK(Y577) (SC-16665), c-Src (SC-8056), STAT3 (SC-8019), p-AKT 1/2/3(S473) (SC-7985), STATS (SC-835), Laminin γ2 (SC-393225), COL1A1 (SC-28657), CCL5(RANTES) (SC-514019) CCL20(MIP-3α) (SC-517441), SIRT1 (SC-74465), ChREBP (SC-515922), SREBP1 (SC-366513), DGAT1 (SC-271934), DGAT2 (SC-293211), MICA/B (SC-137242), SLAMF7 (SC-390840), α-tublin (SC-5286), β-actin (SC-47778), FUCA (SC-365496) (the above from Santa Cruz Biotech, USA), p-FAK(Y397) (cat # 611723), FAK (cat # 610088), p27 (cat # 610242) (the above from BD Transduction, USA), p-FAK(Y925) (#3284) p-c-Src(Y416) (#2101), p-STAT3(Y705) (#9145), p70S6K1 (#9202), p-p70S6K1(T389) (#9205), p-STAT5(Y694) (#9314), ACC (#3676), FASN (#3189), CPT1A (#12252), p-ACC(S79) (#11818), HA (#3724), PD-L1 (#13684), PD-1 (#86163), p-ERK1/2(T202/Y204) (#9101s), ERK1/2 (#9102s) (the above from Cell Signaling Tech., USA), pS10p27(S10) (ab62364), human SLAMF6 (ab224201), TIGIT (ab233404), CD34 (ab81289) (the above from Abcam, UK), mouse SLAMF6 (PA5-87823), NKG2D (PA5-102038) (the above from Thermofisher, USA), α-SMA (Sigma Aldrich, A5228), CCL2 (Invitrogen, MA5-17040), and CD155(PVR) (Biolegend, 337601), HA (Biolegend, USA), Strep-HRP(horse-radish peroxidase), StrepMAB-HRP (IBA, USA), AFP (FineTest, FNab00203) were reacted at 4°C for 15 hours. The next day, secondary antibodies were reacted, and development was performed on X-ray film using ECL (Pierce, USA). […]
After 24 hours, vehicle DMSO, drug ST-1-025, or ST-5-002 was treated at the given concentrations. […] (f) After treating NK92-EV or NK92-TM4SF5 cells with DMSO or drugs ST-2-001 (1 nM), ST-3-005 (10 nM or 1 µM), ST-5-001, or ST-5-002 (100 nM or 1 µM) for 24 hours, the expression of SLAMF7 expressed on the cell surface was analyzed through immunostaining using flow cytometry. The expression level of SLAMF7 was confirmed by adding a SLAMF7 antibody to bind with SLAMF7 and then measuring the fluorescence linked to the SLAMF7 antibody using flow cytometry. […]

Structure (SMILES)	SLAMF7 expression level (SNU761-TM4SF5 (FIG. 13d))	SLAMF7 expression decreased due to TM4SF5 (SNU761 with FLAG-SLAMF7 and HA-TM4SF5, given concentrations, 24 hours (FIG. 15d))	expression level of SLAMF7 (WCL)
Cc1ccc(C(=O)Nc2ccc(-c3cc(-c4ccc(O)cc4)no3)cc2)cc1 [ST-5-002, N-(4-(3-(4-hydroxyphenyl)isoxazole-5-yl)phenyl)-4-methylbenzamide]	less lowered or remained high	showed a pattern of recovery	increasing again
COc1cccc(-c2cc(-c3ccc(NC(C)=O)cc3)no2)c1 [ST-3-001, N-(4-(5-(3-methoxyphenyl)isoxazole-3-yl)phenyl)acetamide]	–	–	did not show a recovery
